Experimental data: patent US8772300B2, “Phenyl or pyridinyl-ethynyl derivatives” (Hoffmann-La Roche Inc., priority 2011, dated 2014)

Target: T1, human mGlu5a receptor (Homo sapiens, UniProt P41594)
T1 construct: expressed in transfected cells
Test: Intracellular Ca2+ mobilization assay (mGlu5 PAM)
Assay type: cell-based
Details: for Emax: HEK293, maximal response in % of the maximal stimulatory effect obtained with saturating concentrations of L-glutamate, read-out: Eff. (%); for EC50: HEK-293 cells stably transfected with human mGlu5a receptor, L-glutamate added at EC20 (typically around 80 μM) after 10-30 min pre-incubation with test compound, read-out: EC50 (nM) mGlu5PAM
Experimental: A monoclonal HEK-293 cell line stably transfected with a cDNA encoding for the human mGlu5a receptor was generated; for the work with mGlu5 Positive Allosteric Modulators (PAMs), a cell line with low receptor expression levels and low constitutive receptor activity was selected to allow the differentiation of agonistic versus PAM activity. Cells were cultured according to standard protocols (Freshney, 2000) in Dulbecco's Modified Eagle Medium with high glucose supplemented with 1 mM glutamine, 10% (vol/vol) heat-inactivated bovine calf serum, Penicillin/Streptomycin, 50 μg/ml hygromycin and 15 μg/ml blasticidin (all cell culture reagents and antibiotics from Invitrogen, Basel, Switzerland).
About 24 hrs before an experiment, 5×10^4 cells/well were seeded in poly-D-lysine coated, black/clear-bottomed 96-well plates. The cells were loaded with 2.5 μM Fluo-4AM in loading buffer (1×HBSS, 20 mM HEPES) for 1 hr at 37° C. and washed five times with loading buffer. The cells were transferred into a Functional Drug Screening System 7000 (Hamamatsu, Paris, France), and 11 half logarithmic serial dilutions of test compound at 37° C. were added and the cells were incubated for 10-30 min with on-line recording of fluorescence. Following this pre-incubation step, the agonist L-glutamate was added to the cells at a concentration corresponding to EC20 (typically around 80 μM) with on-line recording of fluorescence; in order to account for day-to-day variations in the responsiveness of cells, the EC20 of glutamate was determined immediately ahead of each experiment by recording of a full dose-response curve of glutamate.
Responses were measured as peak increase in fluorescence minus basal (i.e. fluorescence without addition of L-glutamate), normalized to the maximal stimulatory effect obtained with saturating concentrations of L-glutamate. Graphs were plotted with the % maximal stimulatory using XLfit, a curve fitting program that iteratively plots the data using Levenburg Marquardt algorithm. The single site competition analysis equation used was y=A+((B−A)/(1+((x/C)D))), where y is the % maximal stimulatory effect, A is the minimum y, B is the maximum y, C is the EC50, x is the log 10 of the concentration of the competing compound and D is the slope of the curve (the Hill Coefficient). From these curves the EC50 (concentration at which half maximal stimulation was achieved), the Hill coefficient as well as the maximal response in % of the maximal stimulatory effect obtained with saturating concentrations of L-glutamate were calculated.
A depression of the signal observed after addition of the EC20 concentration of L-glutamate was indicative of an inhibitory activity of the test compound.

T1 sequence (P41594 21-1180 isoform P41594-2 limits assumed): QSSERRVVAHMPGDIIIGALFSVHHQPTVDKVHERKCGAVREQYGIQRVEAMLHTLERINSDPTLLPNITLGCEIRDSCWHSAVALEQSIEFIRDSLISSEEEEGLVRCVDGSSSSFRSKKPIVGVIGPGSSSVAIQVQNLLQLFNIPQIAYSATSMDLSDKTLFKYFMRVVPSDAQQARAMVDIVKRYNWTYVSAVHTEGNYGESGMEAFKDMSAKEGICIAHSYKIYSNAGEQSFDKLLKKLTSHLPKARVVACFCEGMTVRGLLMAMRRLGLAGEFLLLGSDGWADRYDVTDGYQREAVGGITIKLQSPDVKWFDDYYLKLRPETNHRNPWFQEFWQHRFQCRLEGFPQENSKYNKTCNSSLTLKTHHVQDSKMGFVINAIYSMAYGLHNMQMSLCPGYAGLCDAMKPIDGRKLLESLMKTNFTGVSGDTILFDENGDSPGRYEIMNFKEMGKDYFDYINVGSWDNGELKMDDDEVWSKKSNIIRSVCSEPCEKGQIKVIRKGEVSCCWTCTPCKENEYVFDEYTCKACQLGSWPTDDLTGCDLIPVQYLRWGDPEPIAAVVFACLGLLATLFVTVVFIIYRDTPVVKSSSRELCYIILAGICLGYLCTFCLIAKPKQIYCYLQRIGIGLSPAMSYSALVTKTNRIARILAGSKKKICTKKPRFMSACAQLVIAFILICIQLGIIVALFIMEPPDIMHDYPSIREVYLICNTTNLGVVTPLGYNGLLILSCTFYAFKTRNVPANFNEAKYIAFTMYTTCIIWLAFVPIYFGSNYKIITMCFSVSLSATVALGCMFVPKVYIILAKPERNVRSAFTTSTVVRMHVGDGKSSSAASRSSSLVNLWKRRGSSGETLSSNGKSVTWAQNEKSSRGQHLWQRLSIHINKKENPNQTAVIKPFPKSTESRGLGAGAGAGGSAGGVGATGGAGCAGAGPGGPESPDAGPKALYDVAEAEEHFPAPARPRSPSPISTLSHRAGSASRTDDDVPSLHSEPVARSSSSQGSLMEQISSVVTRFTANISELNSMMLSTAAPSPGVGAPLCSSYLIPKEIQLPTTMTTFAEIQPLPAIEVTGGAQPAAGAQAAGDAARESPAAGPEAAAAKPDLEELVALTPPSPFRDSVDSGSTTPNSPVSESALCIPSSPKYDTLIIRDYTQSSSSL

SMILES | Emax (HEK-293 human mGlu5a cells) [%] | EC50 [nM] | Eff. (%) (maximal response in % of the maximal stimulatory effect obtained with saturating concentrations of L-glutamate, HEK-293 human mGlu5a cells)
CN(C(=O)c1ccc(C#Cc2cccc(F)c2)cn1)C1(C)COC1 [Example 27, 5-(3-Fluoro-phenylethynyl)-pyridine-2-carboxylic Acid methyl-(3-methyl-oxetan-3-yl)-amide] | 53 | 24 | –
CN(C(=O)c1ccc(C#Cc2cccc(Cl)c2)cn1)C(C)(C)C(F)(F)F [Example 56, 5-(3-Chloro-phenylethynyl)-pyridine-2-carboxylic Acid methyl-(2,2,2-trifluoro-1,1-dimethyl-ethyl)-amide] | 29 | 22 | –
CC1(O)CCN(C(=O)c2ccc(C#Cc3cccc(F)c3)cn2)CC1 [Example 37, [5-(3-Fluoro-phenylethynyl)-pyridin-2-yl]-(4-hydroxy-4-methyl-piperidin-1-yl)-methanone] | 38 | 79 | –
CN(C(=O)c1ccc(C#Cc2ccc(F)c(F)c2)cn1)C1(C)COC1 [Example 30, 5-(3,4-Difluoro-phenylethynyl)-pyridine-2-carboxylic Acid methyl-(3-methyl-oxetan-3-yl)-amide] | 50 | 60 | –
CN(C(=O)c1ncc(C#Cc2cccc(F)c2)cn1)C1(C(F)(F)F)CC1 [Example 44, 5-(3-Fluoro-phenylethynyl)-pyrimidine-2-carboxylic Acid methyl-(1-trifluoromethyl-cyclopropyl)-amide] | 68 | 42 | –
CN(C(=O)c1ccc(C#Cc2cccc(Cl)c2)cn1)C1(C(F)(F)F)CC1 [Example 33, 5-(3-Chloro-phenylethynyl)-pyridine-2-carboxylic Acid methyl-(1-trifluoromethyl-cyclopropyl)-amide] | 37 | 33 | –
CC1(C)CN(C(=O)c2ncc(C#Cc3cccc(F)c3)cn2)CCC1O (racemic) [Example 49, (RS)-[5-(3-Fluoro-phenylethynyl)-pyrimidin-2-yl]-(4-hydroxy-3,3-dimethyl-piperidin-1-yl)-methanone] | 48 | 98 | –
CC1(C)CN(C(=O)c2ccc(C#Cc3cc(F)ccc3F)cn2)CCO1 [Example 36, [5-(2,5-Difluoro-phenylethynyl)-pyridin-2-yl]-(2,2-dimethyl-morpholin-4-yl)-methanone] | 44 | 56 | –
CC(N(C)C(=O)c1ccc(C#Cc2cccc(Cl)c2)cn1)C(F)(F)F (racemic) [Example 62, (RS)-5-(3-Chloro-phenylethynyl)-pyridine-2-carboxylic acid methyl-(2,2,2-trifluoro-1-methyl-ethyl)-amide] | 35 | 25 | –
CN(C(=O)c1ccc(C#Cc2cc(F)ccc2F)cn1)C(C)(C)C [Example 5, 5-(2,5-Difluoro-phenylethynyl)-pyridine-2-carboxylic Acid tert-butyl-methyl-amide] | 42 | 12 | –
Cc1cccc(C#Cc2ccc(C(=O)N(C)C3(C(F)(F)F)CC3)nc2)c1 [Example 34, 5-m-Tolylethynyl-pyridine-2-carboxylic Acid methyl-(1-trifluoromethyl-cyclopropyl)-amide] | 46 | 27 | –
CN(C(=O)c1ccc(C#Cc2cccc(F)c2)cn1)C1CCC1 [Example 25, 5-(3-Fluoro-phenylethynyl)-pyridine-2-carboxylic Acid cyclobutyl-methyl-amide] | 56 | 32 | –
CC(C)(C)NC(=O)c1ccc(C#Cc2ccccc2)cn1 [Example 1, 5-Phenylethynyl-pyridine-2-carboxylic Acid tert-butylamide] | 115 | 49 | –
Cc1cc(C#Cc2cc(F)ccc2F)cnc1C(=O)N(C)C(C)(C)C [Example 19, 5-(2,5-Difluoro-phenylethynyl)-3-methyl-pyridine-2-carboxylic Acid tert-butyl-methyl-amide] | 29 | 33 | –
CC(NC(=O)c1ccc(C#Cc2ccnc(Cl)c2)cn1)C(F)(F)F (single isomer, unassigned) [Example 60, (S) or (R)-5-(2-Chloro-pyridin-4-ylethynyl)-pyridine-2-carboxylic Acid (2,2,2-trifluoro-1-methyl-ethyl)-amide] | – | 69 | 60
CC1(C)CN(C(=O)c2ccc(C#Cc3ccc(F)cc3)cn2)CCC1O (racemic) [Example 40, (RS)-[5-(4-Fluoro-phenylethynyl)-pyridin-2-yl]-(4-hydroxy-3,3-dimethyl-piperidin-1-yl)-methanone] | 37 | 93 | –
CN(C(=O)c1ncc(C#Cc2ccc(F)cc2)cn1)C(C)(C)C [Example 11, 5-(4-Fluoro-phenylethynyl)-pyrimidine-2-carboxylic Acid tert-butyl-methyl-amide] | 69 | 34 | –
CN(C(=O)c1ncc(C#Cc2cccc(F)c2)cc1F)C1(C)CC1 [Example 42, 3-Fluoro-5-(3-fluoro-phenylethynyl)-pyridine-2-carboxylic Acid methyl-(1-methyl-cyclopropyl)-amide] | 35 | 33 | –
CN(C(=O)c1ccc(C#Cc2cccnc2)cn1)C(C)(C)C [Example 6, 5-Pyridin-3-ylethynyl-pyridine-2-carboxylic Acid tert-butyl-methyl-amide] | 70 | 72 | –
CC(C)(NC(=O)c1ccc(C#Cc2ccnc(Cl)c2)cn1)C(F)(F)F [Example 54, 5-(2-Chloro-pyridin-4-ylethynyl)-pyridine-2-carboxylic Acid (2,2,2-trifluoro-1,1-dimethyl-ethyl)-amide] | 80 | 37 | –
CN(C(=O)c1ncc(C#Cc2cncc(Cl)c2)cc1F)C(C)(C)C [Example 24, 5-(5-Chloro-pyridin-3-ylethynyl)-3-fluoro-pyridine-2-carboxylic Acid tert-butyl-methyl-amide] | 29 | 11 | –
CC(C)(C)NC(=O)c1ncc(C#Cc2cccc(F)c2)cn1 [Example 10, 5-(3-Fluoro-phenylethynyl)-pyrimidine-2-carboxylic Acid tert-butylamide] | 81 | 36 | –
CN(C(=O)c1ccc(C#Cc2ccc(F)cc2)cn1)C1(C)CC1 [Example 32, 5-(4-Fluoro-phenylethynyl)-pyridine-2-carboxylic Acid methyl-(1-methyl-cyclopropyl)-amide] | 59 | 24 | –
CN(C(=O)c1ncc(C#Cc2cc(F)ccc2F)cn1)C(C)(C)C [Example 15, 5-(2,5-Difluoro-phenylethynyl)-pyrimidine-2-carboxylic Acid tert-butyl-methyl-amide] | 32 | 35 | –
CN(C(=O)c1ncc(C#Cc2cncc(Cl)c2)cn1)C(C)(C)C [Example 16, 5-(5-Chloro-pyridin-3-ylethynyl)-pyrimidine-2-carboxylic Acid tert-butyl-methyl-amide] | 27 | 58 | –
CC1(C)CC(O)CCN1C(=O)c1ccc(C#Cc2ccccc2)cn1 (racemic) [Example 38, (RS)-(4-Hydroxy-2,2-dimethyl-piperidin-1-yl)-(5-phenylethynyl-pyridin-2-yl)-methanone] | 57 | 28 | –
CN(C(=O)c1ccc(C#Cc2cncc(Cl)c2)cn1)C(C)(C)C(F)(F)F [Example 55, 5-(5-Chloro-pyridin-3-ylethynyl)-pyridine-2-carboxylic Acid methyl-(2,2,2-trifluoro-1,1-dimethyl-ethyl)-amide] | 63 | 37 | –
O=C(c1ncc(C#Cc2ccccc2)cn1)N1CC(F)(F)C1 [Example 45, (3,3-Difluoro-azetidin-1-yl)-(5-phenylethynyl-pyrimidin-2-yl)-methanone] | 51 | 62 | –
CC(C)(C)NC(=O)c1ncc(C#Cc2cccc(Cl)c2)cn1 [Example 14, 5-(3-Chloro-phenylethynyl)-pyrimidine-2-carboxylic Acid tert-butylamide] | 95 | 111 | –
CC1(C)CC(O)CCN1C(=O)c1ncc(C#Cc2cccc(F)c2)cn1 (racemic) [Example 65, (RS)-[5-(3-Fluoro-phenylethynyl)-pyrimidin-2-yl]-(4-hydroxy-2,2-dimethyl-piperidin-1-yl)-methanone] | 55 | 149 | –
